The results in this text go back to a melting point compilation (Tetko et al.; mined from patent text by program, amines drawn as free bases though some values may be those of a salt).

Turning to `O=S(=O)(CCN1CCOCC1)OCCOc1ccn(-c2ccc(Cl)c(Cl)c2)n1`, the melting point is 120 to 122 °C.

As for `Cc1c(Cl)cccc1N1CCN(CCc2nn(Cc3c[nH]cn3)c3cc4c(cc23)OCO4)CC1`, the melting point was in the range of 176 to 177 °C.

Consider `Cc1c(Nc2cc(-c3cccc(C4NCCc5c4sc4c5CC(C)(C)C4)c3CO)cn(C)c2=O)cnn1C` (stereo unspecified), for which the melting point fell in the range of 164 to 165 °C.

As for `N#Cc1ccccc1N1CCN(CNC(=O)c2cccc(Cl)c2)CC1`, the melting point is 143 to 146 °C.

As to `COc1ccc2c(c1)OC(=O)C(C)(C#Cc1ccccc1)C2` (stereo unspecified), the melting point was 136 to 138 °C.

In turn, `CCC(C(=O)c1ccc(NS(C)(=O)=O)cc1)c1ccccc1` (stereo unspecified) yielded a melting point of 143 to 147 °C.

As to `Cc1c(NC(=O)c2ccc(-c3ccc(Cl)cc3)cc2)ccc2cc(CN3CCCC3)cnc12`, the melting point was in the range of 227 to 229 °C.

In turn, `O=C1Nc2c(Cl)cccc2C1(O)c1ccccc1` (stereo unspecified) registered a melting point of 154 to 156 °C.

For the compound `Cc1cncc(-c2cncc(OC3SCC(O)C(O)C3O)c2)c1` (stereo unspecified), the melting point is 119 to 120 °C.

Turning to `CC1(C)Cc2c(Cl)cccc2C1N=CNC#N` (stereo unspecified), the melting point was in the range of 173 to 175 °C.

`Cc1cc(CNC(=O)c2ccnc(N3CCN(Cc4ccc(F)cc4)C3=O)c2)no1` showed a melting point of 153 to 155 °C.

`CC(C)c1ccc2nc3ccc(C(=O)O)cn3c(=O)c2c1` showed a melting point of 280 to 287 °C.

`Cc1c(S(=O)(=O)c2ccc(=O)[nH]n2)oc2cc(Cl)ccc12` displayed a melting point of over 240 °C.

In the case of `COc1ccc(C(=O)Nc2ccccc2)cc1NCc1ccc(F)c(F)c1`, the melting point lay in the range of 150 to 152 °C.

Turning to `Nc1nc2c(Cl)cc(C(F)(F)F)cc2[nH]c1=O`, the melting point was 270 to 272 °C.

Take `CCCC(=O)c1cc2c(s1)CCC1CC(=O)N(c3ccc(Cl)cc3)N=C21` (stereo unspecified): the melting point is 157 to 159 °C.

On to `COc1cc(COc2nn(C)cc2C(=O)O)ccc1OCc1nc(-c2ccccc2)oc1C`, for which the melting point lay within 169 to 170 °C.

`CCN1CCCN(c2cc(Cl)ccc2C)C1=S` showed a melting point of 111 to 112 °C.

For the compound `CC(=O)O[C@@H]1OCC[C@@H]1NC(=O)[C@H](CC(C)C)NC(=O)c1ccc(N)cc1`, the melting point was in the range of 148 to 150 °C.

Take `COC(=S)NS(=O)(=O)c1ccc(Cl)cc1`: the melting point is 129 to 130 °C.

`CCCCc1nc(Cl)c(COC)n1Cc1ccc(-c2ccccc2NS(=O)(=O)C(F)(F)F)cc1`: the melting point fell in the range of 148 to 150 °C.

The compound `CC(C)C(C(=O)O)c1ccc(OC(F)F)c([N+](=O)[O-])c1` (stereo unspecified) gave a melting point of 88 to 90 °C.

Compound `CS(=O)(=O)c1ccc(-c2[nH]c3ccc(Br)cc3c2-c2ccccc2)cc1` had a melting point of 262 to 264 °C.

Compound `Nc1nc(-c2ccc(Cl)cc2F)nc(C(=O)O)c1Cl` yielded a melting point of 194 to 196 °C.

On to `CN(C)Cc1ccc(CSCCNc2ncc(-c3ccccc3)c(=O)[nH]2)o1`, for which the melting point was 116 to 118 °C.

`CCOc1nc(N)nc(C(F)(F)F)n1` yielded a melting point of 124 to 125 °C.

With `C=CC(=O)NC(=O)N1CC1C#N` (stereo unspecified), the melting point is 158 to 160 °C.

As for `CC(C)NC(=O)CC(O)(Cn1cncn1)c1ccc(Cl)cc1Cl` (stereo unspecified), the melting point is 105 to 107 °C.

Regarding `CCOC(=O)c1cc2cc(Oc3ccc(S(C)(=O)=O)cc3)cc(O)c2[nH]1`, the melting point lay within 197 to 198 °C.

With `O=C(O)c1cc(Cl)nn2nnnc12`, the melting point came to 225 °C.

For `Cc1cc(C=O)c2cccc(OCc3ccccc3)c2n1`, the melting point was 129 °C.

As for `O=P(O)(O)COc1ccc2c(c1)[nH]c1ccccc12`, the melting point is 291 °C.

In turn, `CCC(n1cncn1)C(O)(Cn1cncn1)c1ccc(Cl)cc1` (stereo unspecified) had a melting point of 168 to 169 °C.

Turning to `CC(=O)C(C)=Cc1sccc1C`, the melting point is 72 °C.

In turn, `Cc1cc(C)c2nc(NC3CCN(CCO)CC3)n(Cc3nc(C)ccc3O)c2c1` gave a melting point of 177 °C.

In the case of `CCC1(CC)C(=O)Nc2ccc(-c3cccc(Cl)c3)cc21`, the melting point is 156 to 159 °C.
